Test system: SARS-CoV-2
Experiment: microbe, parasite or virus in culture
Conditions: Severe acute respiratory syndrome coronavirus 2, Vero C1008, 48 h

Compound | IC50 [µM] | IC50 (read-out: pIC50 (converted)) [µM]
O=S(=O)(O)c1cc(O)ccc1O [CALCIUM DOBESILATE] | > 20 | > 20
Nc1ncc([N+](=O)[O-])s1 | > 20 | > 20
CCC1NC(=O)c2cc(S(N)(=O)=O)c(Cl)cc2N1 (stereo not drawn) [QUINETHAZONE] | > 20 | > 20
O=C(Cn1ccnc1)c1ccc2ccccc2c1 [NAFIMIDONE] | > 20 | > 20
CN1CCC(c2c[nH]c3ccc(NC(=O)c4ccc(F)cc4)cc23)CC1 | > 20 | > 20
COc1cc(OC)c(C(=O)CCCN2CCCC2)c(OC)c1 [BUFLOMEDIL] | > 20 | > 20
O=c1[nH]c(=O)n(C2CC(O)C(CO)O2)cc1I (stereo not drawn) | > 20 | > 20
CCCSc1ccc2[nH]c(NC(=O)OC)nc2c1 [ALBENDAZOLE] | > 20 | > 20
OC[C@H]1O[C@@H](S[C@@H]2O[C@H](CO)[C@H](O)[C@H](n3cc(-c4cccc(F)c4)nn3)[C@H]2O)[C@H](O)[C@@H](n2cc(-c3cccc(F)c3)nn2)[C@H]1O [OLITIGALTIN] | > 20 | > 20
CC(=O)O[C@]1(C(C)=O)CC[C@H]2[C@@H]3C=C(Cl)C4=CC(=O)[C@@H]5C[C@@H]5[C@]4(C)[C@H]3CC[C@@]21C [CYPROTERONE ACETATE] | > 20 | > 20
CC1=CC(=O)C(C(C)C)=CC1=O [THYMOQUINONE] | > 20 | > 20
NC(=O)Oc1ccc(Cc2ccccc2)cc1 | > 20 | > 20
CC(=O)OC1CCC2(C)C3CCC4(C)C(CC5OC6(CCC(C)CO6)C(C)C54)C3CC[C@H]2C1 (stereo partly drawn) | > 20 | > 20
CCn1c(=O)c2ccccc2n(-c2cccc([N+](=O)[O-])c2)c1=O [NITRAQUAZONE] | > 20 | > 20
N=C(NCCCCCCNC(=N)NC(=N)Nc1ccc(Cl)cc1)NC(=N)Nc1ccc(Cl)cc1 [CHLORHEXIDINE] | > 20 | > 20
COc1cc2c(cc1OC)[C@@]13CCN4CC5=CCO[C@H]6CC(=O)N2[C@H]1[C@H]6[C@H]5C[C@H]43 [BRUCINE] | > 20 | > 20
CCN1C(=S)N(c2ccc(N3CCN(c4ccc(O)cc4)CC3)cc2)C(=O)C1(C)C | > 20 | > 20
Cc1ccc(C(=O)Nc2ccc(Oc3cc4cnn(C)c4cc3-c3cn[nH]c3)c(F)c2)c(=O)n1-c1ccc(F)cc1 [MERESTINIB] | > 20 | > 20
NC(=O)OCC(COC(N)=O)c1ccccc1 [FELBAMATE] | > 20 | > 20
CC1=CC(=O)C2=C(C)CCC3[C@H](C)C(=O)O[C@@H]3[C@@H]12 (stereo partly drawn) | > 20 | > 20
O=P(O)(NCCCl)NCCCl [PALIFOSFAMIDE] | > 20 | > 20
C=CC1=C(C(=O)O)N2C(=O)[C@@H](NC(=O)/C(=N\O)c3csc(N)n3)[C@H]2SC1 | > 20 | > 20
C#C[C@]1(O)CC[C@H]2[C@@H]3CC[C@H]4Cc5nn(S(C)(=O)=O)cc5C[C@]4(C)[C@H]3CC[C@@]21C [ZANOTERONE] | > 20 | > 20
CN(CCCN1c2ccccc2CCc2ccccc21)CC(=O)c1ccc(Cl)cc1 [LOFEPRAMINE] | > 20 | > 20
Cc1ncc[nH]1 | > 20 | > 20
NNC(=O)CN1C(=O)CN=C(c2ccccc2)c2cc(Br)ccc21 | > 20 | > 20
N=C(N)NC(=O)c1nc(Cl)c(N)nc1N [AMILORIDE] | > 50.1 | > 50.1
CC(=O)OCC(=O)[C@@]1(O)CC[C@H]2[C@@H]3CCC4=CC(=O)CC[C@]4(C)[C@H]3C(=O)C[C@@]21C [CORTISONE ACETATE] | > 20 | > 20
CC(C)(C)NCC(O)c1ccc(O)c(CO)c1 (stereo not drawn) [ALBUTEROL] | > 20 | > 20

Source: ChEMBL document CHEMBL4651402, “Screening of ~5500 FDA-approved drugs and clinical candidates for anti-SARS-CoV-2 activity” (2021)
